Residues, ends and D or L forms follow the SMILES beside them.
How the values were obtained:
[1] = Heat denaturation assay to measure melting temperatures; format: physicochemical
Protocol: In order to assess differences in helix stability between the metal ion complexed and uncomplexed forms of peptides Seq. ID No's. 3 and 4, the conformational stability of each peptide in the presence and absence of transition metal ions was determined from heat denaturation studies according to published procedures. Pace et al., In Protein structure, p. 311., IRL Press, (1989). The analysis of the thermal denaturation curves afforded linear ΔG vs. T and van't Hoff plots. […] Complexed peptides Seq. ID No's.
Because tris-bipyridyl-metal ion coordination complexes are chiral and can form either a left-handed or a right-handed helix, two diastereomeric tri-helical structures can possibly be formed. The stereogenic environment of the ensuing parallel tri-helical topology as well as the geometrical constraints imposed by the overall C3 symmetry of the coordination complex was expected, however, to enforce a high degree of diastereoselectivity in the assembly process. The CD spectrum (in the region of 280 and 330 nm) of the peptide in the presence of Ni(II) indicated the formation of one diastereomer having a left-handed helical configuration. Such a behavior is also consistent with the expected left handed supercoil of the tri-helical metallopolypeptide. The analysis of the thermal denaturation curves for the metallopolypeptide in the presence of Ni(II) yielded linear ΔG vs T and van't Hoff plots.

[2] = Metal ion selectivity and relative affinities by CD analysis; format: binding; conditions: CD analysis; peptide SEQ ID NO:11 at pH 6.0
Description: Metal ion selectivity is an expected consequence of site specific metal-ligand interaction. The extent of helical induction, to a first approximation, depends on the affinity of metal ion toward the ligands employed, and on the compatibility of metal ion geometry and coordination sphere with the alpha-helical conformation. Thus, although numerous metal ions can induce and stabilize alpha-helix formation, the metal ion having the greatest relative affinity for the ligands employed is preferred and can readily be determined. […]
Peptides, prepared as in Example 1, and admixed with various metal salt solutions as described in Example 2B, were subjected to CD analysis to characterize metal ion selectivity with respect to the position of the metal binding site in the alpha-helical sequence.

[3] = Circular dichroism (CD) to measure degree of secondary structure (alpha-helicity); format: physicochemical
Protocol: ID No's. 3 and 4. The analysis was performed as described above.
Proton nuclear magnetic resonance spectra were recorded at 300MHz on Bruker AM300 spectrometer and are reported in parts per million (ppm) downfield from Me4 Si. Ultraviolet-visible spectra were recorded on Aviv Associates 14DS and Milton Roy Spectronic 3000 Array spectrometers. Circular dichroism measurements were made on Aviv Associates 62DS spectrometer equipped with a thermostable cell holder using 10, 1, and 0.1 mm Hellma quartz cells. All reported CD data have an uncertainty of ±2-5%. All ellipticity measurements are expressed as mean residue ellipticity, [θ], having the units deg·cm^2 ·dmol-^1.

[4] = CD titration: dependence of [θ]222 on free metal ion concentration, CuCl2; format: binding; conditions: CuCl2, pH 5.3; peptide 6.1×10^-5 M in 5 mM sodium borate, 21° C.
Description: (§1) FIG. 4 illustrates the dependence of mean residue molar ellipticity at 222 nm ([.THETA.]222 ×10^-3) of peptides SEQ ID NO's:2 AND 3 on the concentration of free metal ions when measured as described in Example 3A(2).
(§2) The peptide metal salt solution admixtures prepared as in Example 2A were subjected to CD analyses according to published procedures to measure the degree of stability induced by metal ion complexation with peptides. Greenfield et al., Biochem, 8:4108 (1969) and Johnson, Ann. Rev. Biophvs. Chem., 17:145 (1988). All CD data reported herein have an uncertainty of ±2 to 5% for a 100% helix, [θ]222 =-35,000, and are based on several CD measurements of both peptides SEQ ID NO's:2 and 3 in the presence and absence of metal ions in various TFE/H20 mixtures at -10° to 20° C.
(§3) Both Cu(II) and Zn(II) bound peptide SEQ ID NO:3 with similar affinities and increased the helical content to the same extent.

[5] = CD titration: dependence of [θ]222 on free metal ion concentration, NiCl2; format: binding; conditions: NiCl2, pH 6.3; peptide 6.1×10^-5 M in 5 mM sodium borate, 21° C.
Description: as §1, §2, §3

[6] = CD titration: dependence of [θ]222 on free metal ion concentration, CdCl2; format: binding; conditions: CdCl2, pH 7.5; peptide 6.1×10^-5 M in 5 mM sodium borate, 21° C.
Description: as §1, §2, §3

[7] = CD titration: dependence of [θ]222 on free metal ion concentration, ZnCl2; format: binding
Description: as §1, §2, §3

[8] = Absorption spectroscopy pH profile of Ru(III)-peptide complexes; format: physicochemical; conditions: from absorption data vs pH
Description: The Ru(III)-peptide SEQ ID NO:3 complex prepared as in Example 2B was subjected to absorption spectroscopy to further confirm the formation of a metallopeptide complex.
The pronounced shift in absorption maxima with increasing pH value is consistent with the behavior of the Ru(III) ions containing coordinated imidazoles and is attributed to N-H deprotonation at the "pyrrole nitrogen", Sunberg et al., J. Am. Chem. Soc., 96:381 (1974). […] The spectral similarity with the simple ruthenium(III)imidazole complexes and the characteristically facile metal-ion promoted imidazole NH ionization provide further support for the formation of the metallopeptide complex.

[9] = in the presence of Cu(II) ions (CuSO4, solution 13) at 0° C.

With `CC(=O)N[C@@H](C)C(=O)N[C@@H](CCC(=O)O)C(=O)N[C@@H](C)C(=O)N[C@@H](C)C(=O)N[C@@H](C)C(=O)N[C@@H](CCCCN)C(=O)N[C@@H](CCC(=O)O)C(=O)N[C@@H](C)C(=O)N[C@@H](C)C(=O)N[C@@H](C)C(=O)N[C@@H](CCCCN)C(=O)N[C@@H](Cc1c[nH]cn1)C(=O)N[C@@H](C)C(=O)N[C@@H](C)C(=O)N[C@@H](C)C(=O)N[C@@H](Cc1c[nH]cn1)C(=O)N[C@@H](C)C(N)=O` [peptide SEQ ID NO:3, Ac--Ala--Glu--Ala--Ala--Ala--Lys--Glu--Ala--Ala--Ala--Lys--His--Ala--Ala--Ala--His--Ala--CONH2] (Ac-AEAAAKEAAAKHAAAHA-NH2) the “melting temperature (Tm)” value [1] was 11 °C, the “metal ions bound, order of affinity” value [2] was “Ni(II), Cd(II), Cu(II) and Zn(II) in descending order of affinity” and the “dependence of helicity on added NaF” value ([3]; NaF up to 250 mM, 5 mM sodium borate) was “independent of concentration of added NaF up to 250 mM”. For the same molecule, the alpha-helicity [3, 9] was “about 90%”, the “θ222” value [3, 9] was -31,100 and the “dependence of CD spectra on peptide concentration” value ([3]; presence and absence of metal ions, 0.5-70 μM) was “independent of the peptide concentration”. The alpha-helicity ([3]; room temperature in water) was 45%, the θ222 ([3]; room temperature in water) was -16,600 and the Kd [4] was 66 µM. For the same molecule, the Kd [5] was 210 µM, the Kd [6] was 220 µM and the “effect of Zn(II) on helical content” value ([7]; CD analysis, ZnCl2) was “considerable helical induction”. The Kd ([7]; ZnCl2, pH 7.5, peptide 6.1×10^-5 M in 5 mM sodium borate, 21° C.) was 75 µM.

With “Ru(III)-peptide SEQ ID NO:4 complex: exchange-inert macrocyclic cis-[Ru(NH3)4 (L)2 ]^3+ complex of peptide SEQ ID NO:4 through two His residues at i and i+4 (AEAAAKHAAAHEAAAKA; Ru(III) tetraammine macrocyclic complex via two His)” the “melting temperature (Tm)” value [1] was 9.5 °C, the alpha-helicity ([3]; room temperature in water) was 50% and the θ222 ([3]; room temperature in water) was -17,300. The “pKa of the imidazole NH of the coordinated histidine” value [8] was 7.5.
